As a reminder, the IC50 is the concentration needed to halve the response being measured. Higher therefore signals a need for much substance.

The target of one assay is β-secretase I (BACE1) (Homo sapiens, UniProt P56817). Description: Automated (CyclOps) biochemical assay BACE1.
A further assay concerns the target T1, β-secretase II (BACE2) (Homo sapiens, UniProt Q9Y5Z0).
T1 sequence (Q9Y5Z0 63-518): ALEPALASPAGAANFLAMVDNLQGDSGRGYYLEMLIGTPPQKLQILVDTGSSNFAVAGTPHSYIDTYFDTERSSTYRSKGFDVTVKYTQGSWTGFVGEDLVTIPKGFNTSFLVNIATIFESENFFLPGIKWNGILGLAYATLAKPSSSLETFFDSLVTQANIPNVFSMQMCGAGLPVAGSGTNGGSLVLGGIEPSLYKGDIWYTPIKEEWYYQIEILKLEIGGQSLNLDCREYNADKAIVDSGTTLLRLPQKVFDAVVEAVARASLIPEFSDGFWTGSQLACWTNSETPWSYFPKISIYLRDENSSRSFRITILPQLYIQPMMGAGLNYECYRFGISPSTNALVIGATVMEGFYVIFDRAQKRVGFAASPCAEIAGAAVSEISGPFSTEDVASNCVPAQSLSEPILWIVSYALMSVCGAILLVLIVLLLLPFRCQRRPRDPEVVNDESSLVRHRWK
Description: Automated (CyclOps) biochemical assay BACE2.

Sequence of β-secretase I (BACE1) (P56817 46-501): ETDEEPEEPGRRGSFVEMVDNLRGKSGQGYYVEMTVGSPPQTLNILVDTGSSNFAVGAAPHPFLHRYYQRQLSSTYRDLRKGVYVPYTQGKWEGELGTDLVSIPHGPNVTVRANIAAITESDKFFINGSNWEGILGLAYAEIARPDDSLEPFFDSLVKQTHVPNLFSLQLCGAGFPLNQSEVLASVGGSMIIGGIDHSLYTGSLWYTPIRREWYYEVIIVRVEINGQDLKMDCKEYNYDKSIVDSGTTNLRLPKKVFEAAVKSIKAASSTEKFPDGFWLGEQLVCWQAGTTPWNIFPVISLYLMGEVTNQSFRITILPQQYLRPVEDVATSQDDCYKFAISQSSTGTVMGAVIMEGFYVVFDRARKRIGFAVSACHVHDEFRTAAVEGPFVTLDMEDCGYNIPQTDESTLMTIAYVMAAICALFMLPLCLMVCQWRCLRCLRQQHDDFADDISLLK

In the case of `COc1ncc(C(=O)N2CCN(c3cccnc3)CC2)c2c1C[C@]1(c3ccc(F)cc3F)N=C(N)SC[C@@H]1C2` [Compound 5], the IC50 was 145 nM against β-secretase I (BACE1) and 324 nM on β-secretase II (BACE2).

As to `COc1ncc(C(=O)N2CCS(=O)(=O)CC2)c2c1C[C@]1(c3ccc(F)cc3F)N=C(N)SC[C@@H]1C2` [Compound 12], the IC50 at β-secretase I (BACE1) is 501 nM; against β-secretase II (BACE2), 832 nM.

With `COc1ncc(C(=O)N2CCN(C(=O)C3CC3)CC2)c2c1C[C@]1(c3ccc(F)cc3F)N=C(N)SC[C@@H]1C2` [Compound 10], the IC50 against β-secretase I (BACE1) is 490 nM; against β-secretase II (BACE2), 1450 nM.

As for `COc1ncc(C(=O)N2CCC(c3ccncc3)C2)c2c1C[C@]1(c3ccc(F)cc3F)N=C(N)SC[C@@H]1C2` (stereo partly drawn) [Compound 26], the results for the IC50 against β-secretase I (BACE1) and at β-secretase II (BACE2) were 15.7 nM and 507 nM, respectively.

As for `COc1ncccc1C(=O)NCc1cnc(OC)c2c1C[C@H]1CSC(N)=N[C@@]1(c1ccc(F)cc1F)C2` [Compound 47], the IC50 is 25.7 nM against β-secretase I (BACE1) and 209 nM against β-secretase II (BACE2).

Regarding `COCC1CCN(C(=O)c2cnc(OC)c3c2C[C@H]2CSC(N)=N[C@@]2(c2ccc(F)cc2F)C3)CC1` [Compound 11], the 50% inhibitory concentration (IC50) was 155 nM against β-secretase I (BACE1) and 776 nM on β-secretase II (BACE2).

Regarding `COc1ncc(C(=O)N2Cc3cccnc3C2)c2c1C[C@]1(c3ccc(F)cc3F)N=C(N)SC[C@@H]1C2` [Compound 8], the IC50 against β-secretase I (BACE1) is 1000 nM; on β-secretase II (BACE2), 3550 nM.

As to `COc1ncc(C(=O)Nc2ccncc2)c2c1C[C@]1(c3ccc(F)cc3F)N=C(N)SC[C@@H]1C2` [Compound 16], the IC50 is 53.7 nM against β-secretase I (BACE1) and 138 nM at β-secretase II (BACE2).

As to `COc1ncc(CNC(=O)c2ccncn2)c2c1C[C@]1(c3ccc(F)cc3F)N=C(N)SC[C@@H]1C2` [Compound 50], the IC50 was 115 nM against β-secretase I (BACE1) and 309 nM at β-secretase II (BACE2).

In the case of `COc1ncc(CNC(=O)c2cnoc2C(C)C)c2c1C[C@]1(c3ccc(F)cc3F)N=C(N)SC[C@@H]1C2` [Compound 42], the half-maximal inhibitory concentration (IC50) against β-secretase I (BACE1) was 74.1 nM; at β-secretase II (BACE2), 138 nM.

In the case of `COc1ccccc1C(=O)NCc1cnc(OC)c2c1C[C@H]1CSC(N)=N[C@@]1(c1ccc(F)cc1F)C2` [Compound 34], the concentration for half-maximal inhibition (IC50) was 219 nM against β-secretase I (BACE1) and 537 nM against β-secretase II (BACE2).

For the compound `COc1ncc(CNC(=O)c2ncc(F)cc2F)c2c1C[C@]1(c3ccc(F)cc3F)N=C(N)SC[C@@H]1C2` [Compound 37], the IC50 on β-secretase I (BACE1) is 25.1 nM; at β-secretase II (BACE2), 70.8 nM.

`COc1ncc(CNC(=O)c2cnc(C(F)(F)F)nc2)c2c1C[C@]1(c3ccc(F)cc3F)N=C(N)SC[C@@H]1C2` [Compound 36]: the IC50 was 21.9 nM at β-secretase I (BACE1) and 36.3 nM at β-secretase II (BACE2).

`COc1ncc(C(=O)N(C)c2ccncc2)c2c1C[C@]1(c3ccc(F)cc3F)N=C(N)SC[C@@H]1C2` [Compound 21]: the values for the IC50 on β-secretase I (BACE1) and against β-secretase II (BACE2) were 112 nM and 324 nM, respectively.

In the case of `COc1ncc(C(=O)N2CCN(c3nccs3)CC2)c2c1C[C@]1(c3ccc(F)cc3F)N=C(N)SC[C@@H]1C2` [Compound 7], the IC50 against β-secretase I (BACE1) was 324 nM; on β-secretase II (BACE2), 871 nM.

In the case of `COc1ncc(C(=O)N2CCN(c3ccncc3)CC2)c2c1C[C@]1(c3ccc(F)cc3F)N=C(N)SC[C@@H]1C2` [Compound 17], the concentration for half-maximal inhibition (IC50) is 158 nM against β-secretase I (BACE1) and 2370 nM at β-secretase II (BACE2).

As to `COc1ncc(C(=O)N(C)Cc2ccncc2)c2c1C[C@]1(c3ccc(F)cc3F)N=C(N)SC[C@@H]1C2` [Compound 18], the figures for the half-inhibitory concentration (IC50) against β-secretase I (BACE1) and at β-secretase II (BACE2) were 8.51 nM and 30.2 nM, respectively.

As to `COc1cccc(N2CCN(C(=O)c3cnc(OC)c4c3C[C@H]3CSC(N)=N[C@@]3(c3ccc(F)cc3F)C4)CC2)c1` [Compound 24], the IC50 is 61.7 nM at β-secretase I (BACE1) and 63.1 nM at β-secretase II (BACE2).

For `COc1cc(OC)nc(C(=O)NCc2cnc(OC)c3c2C[C@H]2CSC(N)=N[C@@]2(c2ccc(F)cc2F)C3)n1` [Compound 49], the 50% inhibitory concentration (IC50) is 34.7 nM against β-secretase I (BACE1) and 178 nM against β-secretase II (BACE2).

Turning to `COc1ncc(C(=O)N2C[C@H]3CC[C@@H](C2)O3)c2c1C[C@]1(c3ccc(F)cc3F)N=C(N)SC[C@@H]1C2` [Compound 19], the IC50 was 18.6 nM at β-secretase I (BACE1) and 117 nM against β-secretase II (BACE2).

Consider `COc1cccc(C(=O)NCc2cnc(OC)c3c2C[C@H]2CSC(N)=N[C@@]2(c2ccc(F)cc2F)C3)n1` [Compound 39], for which the half-inhibitory concentration (IC50) on β-secretase I (BACE1) is 182 nM; on β-secretase II (BACE2), 389 nM.

In the case of `COc1ncc(CNC(=O)c2cccnc2C)c2c1C[C@]1(c3ccc(F)cc3F)N=C(N)SC[C@@H]1C2` [Compound 40], the IC50 against β-secretase I (BACE1) was 112 nM; on β-secretase II (BACE2), 186 nM.

As to `COc1ncc(C(=O)N2CCC(Oc3ccc(F)cc3)CC2)c2c1C[C@]1(c3ccc(F)cc3F)N=C(N)SC[C@@H]1C2` [Compound 14], the IC50 against β-secretase I (BACE1) is 11 nM; on β-secretase II (BACE2), 38.9 nM.

Regarding `COc1ncc(CNC(=O)c2ccncc2F)c2c1C[C@]1(c3ccc(F)cc3F)N=C(N)SC[C@@H]1C2` [Compound 38], the half-maximal inhibitory concentration (IC50) against β-secretase I (BACE1) was 19.1 nM; on β-secretase II (BACE2), 115 nM.

Take `COc1ncc(C(=O)N2CCCCC2)c2c1C[C@]1(c3ccc(F)cc3F)N=C(N)SC[C@@H]1C2` [Compound 20]: the IC50 at β-secretase I (BACE1) is 50.1 nM; against β-secretase II (BACE2), 195 nM.

`COc1ncc(CNC(=O)c2ccncc2C(F)(F)F)c2c1C[C@]1(c3ccc(F)cc3F)N=C(N)SC[C@@H]1C2` [Compound 35]: the half-inhibitory concentration (IC50) at β-secretase I (BACE1) is 138 nM; on β-secretase II (BACE2), 724 nM.

`COc1ncc(C(=O)N2CCCC(OC)C2)c2c1C[C@]1(c3ccc(F)cc3F)N=C(N)SC[C@@H]1C2` (stereo partly drawn) [Compound 23]: the 50% inhibitory concentration (IC50) on β-secretase I (BACE1) is 61.7 nM; against β-secretase II (BACE2), 324 nM.

Regarding `CCOc1ncccc1C(=O)NCc1cnc(OC)c2c1C[C@H]1CSC(N)=N[C@@]1(c1ccc(F)cc1F)C2` [Compound 46], the IC50 against β-secretase I (BACE1) is 36.3 nM; on β-secretase II (BACE2), 407 nM.

Take `COc1ncc(C(=O)N2CC(C)OC(C)C2)c2c1C[C@]1(c3ccc(F)cc3F)N=C(N)SC[C@@H]1C2` (stereo partly drawn) [Compound 9]: the IC50 is 363 nM at β-secretase I (BACE1) and 2140 nM on β-secretase II (BACE2).

In the case of `COc1ncc(CNC(=O)c2ccc(C#N)cc2)c2c1C[C@]1(c3ccc(F)cc3F)N=C(N)SC[C@@H]1C2` [Compound 33], the figures for the IC50 against β-secretase I (BACE1) and against β-secretase II (BACE2) were 57.5 nM and 178 nM, respectively.

In the case of `COc1cccc(C2CCN(C(=O)c3cnc(OC)c4c3C[C@H]3CSC(N)=N[C@@]3(c3ccc(F)cc3F)C4)C2)c1` (single isomer, unassigned) [Compound 25], the IC50 against β-secretase I (BACE1) was 14.8 nM; on β-secretase II (BACE2), 88.1 nM.

As to `COc1ncc(C(=O)N2CCN(C(C)=O)CC2)c2c1C[C@]1(c3ccc(F)cc3F)N=C(N)SC[C@@H]1C2` [Compound 27], the values for the IC50 on β-secretase I (BACE1) and on β-secretase II (BACE2) were 955 nM and 4170 nM, respectively.

`COc1ncc(CNC(=O)CN2CCOCC2)c2c1C[C@]1(c3ccc(F)cc3F)N=C(N)SC[C@@H]1C2` [Compound 44]: the values for the half-maximal inhibitory concentration (IC50) on β-secretase I (BACE1) and against β-secretase II (BACE2) were 41.7 nM and 79.4 nM, respectively.

Take `COc1ncc(C(=O)N2CCOC(c3cccc(C)c3)C2)c2c1C[C@]1(c3ccc(F)cc3F)N=C(N)SC[C@@H]1C2` (stereo partly drawn) [Compound 13]: the IC50 at β-secretase I (BACE1) was 69.2 nM; against β-secretase II (BACE2), 309 nM.

As for `COc1ncc(CNC(=O)c2cccnc2F)c2c1C[C@]1(c3ccc(F)cc3F)N=C(N)SC[C@@H]1C2` [Compound 43], the concentration for half-maximal inhibition (IC50) was 20.9 nM at β-secretase I (BACE1) and 97.7 nM at β-secretase II (BACE2).

On to `COc1cc(C(=O)NCc2cnc(OC)c3c2C[C@H]2CSC(N)=N[C@@]2(c2ccc(F)cc2F)C3)c(OC)nn1` [Compound 41], for which the IC50 against β-secretase I (BACE1) is 79.4 nM; against β-secretase II (BACE2) it was 513 nM.
